Reference: ChEMBL document CHEMBL6096698, “Discovery of a Selective and Orally Bioavailable RET Degrader with Effectiveness in Various Mutations” (J Med Chem, 2025)
Activity calls are given as the source filed them. The rule behind the calls is not given here.

Assays:
[1] = Half life in Sprague-Dawley rat at 1 mg/kg, iv measured for 24 hrs by LC-MS/MS analysis; type: ADME, organism-based; conditions: in vivo
BaF3 [2] = experiment: Cytotoxicity against mouse BaF3 cells; type: functional, cell-based
[3] = Cmax in Sprague-Dawley rat at 1 mg/kg, iv measured for 24 hrs by LC-MS/MS analysis; type: ADME, organism-based; conditions: in vivo
BaF3 [4] = experiment: Antiproliferative activity against mouse BaF3 cells stably expressing KIF5B-RET incubated for 72 hrs by CCK8 assay; type: functional, cell-based; conditions: BaF3, 72 h
[5] = Induction of apoptosis in mouse BaF3 cells stably expressing KIF5B-RET G810C mutant assessed as early apoptotic cells at 40 nM incubated for 48 hrs by Annexin V-FITC/PI staining based flow cytometry (reference value: 0.86 %); type: functional
BaF3 [6] = experiment: PROTAC activity at CRBN/KIF5B-RET (unknown origin) expressed in mouse BaF3 cells assessed as induction of RET degradation at 1 to 100 nM incubated for 24 hrs by immunoblot analysis relative to control; type: cell-based; conditions: dose 1-100 nM
BaF3 [7] = experiment: Antitumor activity against mouse BaF3 cells stably expressing KIF5B-RET G810C mutant implanted in BALB/c nu/nu mouse at 10 mg/kg, po qd treated for 10 days relative to control; type: functional; conditions: BaF3, 240 h, time 10 day, read-out: TGI
BaF3 [8] = experiment: PROTAC activity at CRBN/KIF5B-RET (unknown origin) expressed in mouse BaF3 cells assessed as induction of RET degradation at 10 nM incubated for 24 hrs in presence of MLN4924 by immunoblot analysis; type: cell-based
[9] = Clearance in Sprague-Dawley rat at 1 mg/kg, iv measured for 24 hrs by LC-MS/MS analysis; type: ADME, organism-based; conditions: in vivo
[10] = AUC (0 to infinity) in Sprague-Dawley rat at 1 mg/kg, iv measured for 24 hrs by LC-MS/MS analysis; type: ADME, organism-based; conditions: in vivo
BaF3 [11] = experiment: Antiproliferative activity against mouse BaF3 cells stably expressing CCDC6-RET incubated for 72 hrs by CCK8 assay; type: functional, cell-based; conditions: BaF3, 72 h
[12] = Volume of distribution at steady state in Sprague-Dawley rat at 1 mg/kg, iv measured for 24 hrs by LC-MS/MS analysis; type: ADME, organism-based; conditions: in vivo, read-out: Vdss
[13] = Half life in Sprague-Dawley rat at 10 mg/kg, po measured for 24 hrs by LC-MS/MS analysis; type: ADME, organism-based; conditions: in vivo
[14] = PROTAC activity at CRBN/KIF5B-RET (unknown origin) expressed in mouse BaF3 cells assessed as induction of RET degradation incubated for 24 hrs by immunoblot analysis; type: cell-based; conditions: BaF3, 24 h
[15] = Induction of apoptosis in mouse BaF3 cells stably expressing KIF5B-RET G810C mutant assessed as viable cells at 40 nM incubated for 48 hrs by Annexin V-FITC/PI staining based flow cytometry (reference value: 92.21 %); type: functional; conditions: read-out: Activity
BaF3 [16] = experiment: Antiproliferative activity against mouse BaF3 cells stably expressing KIF5B-RET V804M mutant incubated for 72 hrs by CCK8 assay; type: functional, cell-based; conditions: BaF3, 72 h
[17] = Induction of apoptosis in mouse BaF3 cells stably expressing KIF5B-RET G810C mutant assessed as necrotic cells at 40 nM incubated for 48 hrs by Annexin V-FITC/PI staining based flow cytometry (reference value: 0.94 %); type: functional
[18] = biological target: T1, Proto-oncogene tyrosine-protein kinase receptor Ret (Homo sapiens, UniProt P07949); experiment: Inhibition of RET (unknown origin) preincubated for 10 mins followed by substrate/ATP addition measured after 30 mins by HTRF assay
T1 sequence (P07949 whole entry): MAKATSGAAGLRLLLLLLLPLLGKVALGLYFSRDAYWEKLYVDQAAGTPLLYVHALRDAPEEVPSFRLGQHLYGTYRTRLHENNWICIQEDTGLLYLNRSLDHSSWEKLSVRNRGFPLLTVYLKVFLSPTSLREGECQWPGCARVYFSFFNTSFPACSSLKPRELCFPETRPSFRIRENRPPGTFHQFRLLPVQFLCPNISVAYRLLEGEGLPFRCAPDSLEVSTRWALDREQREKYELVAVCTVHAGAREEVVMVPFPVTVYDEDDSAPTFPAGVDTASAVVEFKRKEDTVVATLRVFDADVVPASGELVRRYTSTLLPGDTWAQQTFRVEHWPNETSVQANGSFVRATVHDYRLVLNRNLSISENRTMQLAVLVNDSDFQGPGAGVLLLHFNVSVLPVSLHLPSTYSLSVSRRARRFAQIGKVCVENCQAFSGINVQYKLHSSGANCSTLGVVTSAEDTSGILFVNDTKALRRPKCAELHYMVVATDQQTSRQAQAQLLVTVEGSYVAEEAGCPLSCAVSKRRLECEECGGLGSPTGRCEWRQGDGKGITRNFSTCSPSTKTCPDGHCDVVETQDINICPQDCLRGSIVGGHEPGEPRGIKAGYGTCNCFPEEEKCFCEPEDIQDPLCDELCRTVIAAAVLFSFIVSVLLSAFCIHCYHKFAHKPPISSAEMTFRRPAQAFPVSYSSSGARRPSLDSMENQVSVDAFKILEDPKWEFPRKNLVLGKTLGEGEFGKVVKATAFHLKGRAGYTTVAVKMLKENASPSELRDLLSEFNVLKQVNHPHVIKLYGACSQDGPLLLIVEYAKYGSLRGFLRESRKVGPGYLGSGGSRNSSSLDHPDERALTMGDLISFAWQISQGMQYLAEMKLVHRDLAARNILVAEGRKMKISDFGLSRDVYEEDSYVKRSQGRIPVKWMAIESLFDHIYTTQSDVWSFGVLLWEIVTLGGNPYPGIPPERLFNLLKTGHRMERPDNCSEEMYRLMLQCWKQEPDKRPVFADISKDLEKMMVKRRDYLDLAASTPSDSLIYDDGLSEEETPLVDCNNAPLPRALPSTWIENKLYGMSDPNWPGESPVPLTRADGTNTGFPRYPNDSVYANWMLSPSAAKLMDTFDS

[19] = biological target: T1, Proto-oncogene tyrosine-protein kinase receptor Ret; experiment: Inhibition of RET (unknown origin) at 10 nM by kinase profiling analysis relative to control
BaF3 [20] = experiment: Antiproliferative activity against mouse BaF3 cells stably expressing KIF5B-RET G810C mutant incubated for 72 hrs by CCK8 assay; type: functional, cell-based; conditions: BaF3, 72 h
BaF3 [21] = experiment: Antiproliferative activity against mouse BaF3 cells stably expressing KIF5B-RET G810S mutant incubated for 72 hrs by CCK8 assay; type: functional, cell-based; conditions: BaF3, 72 h
[22] = tested on: Kinesin-1 heavy chain/ Tyrosine-protein kinase receptor RET (Homo sapiens), P07949+P33176 [G810C]; experiment: In vivo PROTAC activity at CRBN/KIF5B-RET G810C mutant (unknown origin) expressed in mouse BaF3 cells implanted in BALB/c nu/nu mouse assessed as induction of RET G810C mutant degradation at 10 mg/kg, po qd treated for 10 days by Western blot analysis; type: functional, organism-based; conditions: time 10.0 day
[23] = Induction of apoptosis in mouse BaF3 cells stably expressing KIF5B-RET G810C mutant assessed as early apoptotic cells at 10 nM incubated for 48 hrs by Annexin V-FITC/PI staining based flow cytometry (reference value: 0.86 %); type: functional
[24] = AUC (0 to infinity) in Sprague-Dawley rat at 10 mg/kg, po measured for 24 hrs by LC-MS/MS analysis; type: ADME, organism-based; conditions: in vivo
[25] = Oral bioavailability in Sprague-Dawley rat at 10 mg/kg measured for 24 hrs by LC-MS/MS analysis; type: ADME, organism-based; conditions: in vivo
BaF3 [26] = experiment: PROTAC activity at CRBN/KIF5B-RET (unknown origin) expressed in mouse BaF3 cells assessed as induction of RET degradation at 20 nM incubated for 8 to 24 hrs by immunoblot analysis; type: cell-based; conditions: time 8-24 hrs
BaF3 [27] = experiment: PROTAC activity at CRBN/KIF5B-RET G810C mutant (unknown origin) expressed in mouse BaF3 cells assessed as decrease in Shc activation incubated for 24 hrs by immunoblot analysis; type: cell-based; conditions: dose 1-50 nM
BaF3 [28] = experiment: Antiproliferative activity against mouse BaF3 cells stably expressing KIF5B-RET G810R mutant incubated for 72 hrs by CCK8 assay; type: functional, cell-based; conditions: BaF3, 72 h
[29] = Induction of apoptosis in mouse BaF3 cells stably expressing KIF5B-RET G810C mutant assessed as apoptotic cells at 10 nM incubated for 48 hrs by Annexin V-FITC/PI staining based flow cytometry (reference value: 6.7 %); type: functional
BaF3 [30] = experiment: PROTAC activity at CRBN/KIF5B-RET (unknown origin) expressed in mouse BaF3 cells assessed as induction of RET degradation at 10 nM incubated for 24 hrs by immunoblot analysis; type: cell-based
[31] = Cmax in Sprague-Dawley rat at 10 mg/kg, po measured for 24 hrs by LC-MS/MS analysis; type: ADME, organism-based; conditions: in vivo
[32] = Tmax in Sprague-Dawley rat at 10 mg/kg, po measured for 24 hrs by LC-MS/MS analysis; type: ADME, organism-based; conditions: in vivo
[33] = Toxicity in BALB/c nu/nu mouse implanted with mouse BaF3 cells stably expressing KIF5B-RET G810C mutant assessed as body weight loss at 10 mg/kg, po qd treated for 10 days; type: organism-based; conditions: in vivo, 240 h, time 10 day
[34] = Induction of apoptosis in mouse BaF3 cells stably expressing KIF5B-RET G810C mutant assessed as late apoptotic cells at 10 nM incubated for 48 hrs by Annexin V-FITC/PI staining based flow cytometry (reference value: 5.99 %); type: functional
BaF3 [35] = experiment: PROTAC activity at CRBN/KIF5B-RET (unknown origin) expressed in mouse BaF3 cells assessed as induction of RET degradation at 10 nM incubated for 24 hrs in presence of MG132 by immunoblot analysis; type: cell-based

Q: For `COc1ccc(CN2C3CC2CN(c2ccc(-c4cc(N5CCC(N6CCN(CCCC#Cc7cccc8c7CN(C7CCC(=O)NC7=O)C8=O)CC6)CC5)cn5ncc(C#N)c45)cn2)C3)cn1` (stereo not given), which half-life [1] is on record?
A: 6.98 h

Q: And the IC50 (BaF3 [2])?
A: > 5000 nM

Q: And the Cmax [3]?
A: 0.121 µg/mL

Q: What about the IC50 (BaF3 [4]) of the same compound?
A: 2.6 nM

Q: What about the Activity [5] of the same compound?
A: 56.22%

Q: What about the Emax (BaF3 [6]) of the same compound?
A: 92%

Q: What about the inhibition in vivo at 10 mg/kg (BaF3 [7]) of the same compound?
A: 62.3%

Q: What about the Activity (BaF3 [8]) of the same compound?
A: inactive

Q: And the clearance [9]?
A: 3.17 L/h/kg

Q: And the AUC(0-inf) [10]?
A: 0.295 µg·h/mL

Q: And the IC50 (BaF3 [11])?
A: 2.4 nM

Q: And the Vd [12]?
A: 31.9 L/kg

Q: And the half-life [13]?
A: 8.21 h

Q: What about the DC50 [14] of the same compound?
A: 5.6 nM

Q: And the viability at 0.04 µM [15]?
A: 27.9%

Q: What about the IC50 (BaF3 [16]) of the same compound?
A: 5.2 nM

Q: What about the Activity [17] of the same compound?
A: 0.54%

Q: And the IC50 [18]?
A: 0.371 nM

Q: And the inhibition [19]?
A: > 50%

Q: And the IC50 (BaF3 [20])?
A: 5.3 nM

Q: What about the IC50 (BaF3 [21]) of the same compound?
A: 22.6 nM

Q: What about the Activity [22] of the same compound?
A: Active

Q: And the Activity [23]?
A: 18.33%

Q: What about the AUC(0-inf) [24] of the same compound?
A: 1.19 µg·h/mL

Q: And the bioavailability [25]?
A: 40.3%

Q: What about the Activity (BaF3 [26]) of the same compound?
A: Active

Q: And the Activity (BaF3 [27])?
A: Dose-dependent-effect

Q: And the IC50 (BaF3 [28])?
A: 165 nM

Q: And the Activity [29]?
A: 34.1%

Q: And the Activity (BaF3 [30])?
A: Active

Q: What about the Cmax [31] of the same compound?
A: 0.161 µg/mL

Q: What about the Tmax [32] of the same compound?
A: 2 h

Q: What about the Activity [33] of the same compound?
A: Non-toxic

Q: What about the Activity [34] of the same compound?
A: 15.87%

Q: What about the Activity (BaF3 [35]) of the same compound?
A: inactive
